System: GUMC-403
Assay: viability at highest tested concentration (max response) relative to DMSO (% of DMSO control); higher = less cytotoxic
Conditions: library / dose series: MIPE library, 11-point 1:3 dilution, 48 h
Outline: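 The value is viability at the highest tested concentration, expressed relative to vehicle control. Patient-derived GUMC-403 papilloma cells, grown by conditional reprogramming, were seeded at 700/well in 5 μL F + Y medium in 1536-well plates. After an overnight incubation at 37 °C, they received 23 nL of compound by pin tool for 48 h. Readout was CellTiter-Glo luminescence on a ViewLux, normalised to vehicle wells (100%) and empty wells (0%).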

| Compound | viability (top concentration 46.1 µM) | further results |
| --- | --- | --- |
| CC1(C)[C@H](C(=O)O)N2C(=O)C[C@H]2[S+]1(=O)[O-] | 106 |  |
| CN[C@@H]1Cc2cccc3[nH]c(=O)n(c23)C1 | 112 |  |
| COc1cnc(N[S+](=O)([O-])c2ccc(N)cc2)nc1 | 115 |  |
| COc1cc2c(Nc3ccc(Br)cc3F)ncnc2cc1OCC1CCN(C)CC1 | 52.2 |  |
| COc1ccc([S+](=O)([O-])Nc2cccnc2Nc2ccc(O)cc2)cc1 | 99.9 |  |
| CC1=C(C=CC=C1)N2\C(=N/C3=C(C(=CC=C3)C)C2=O)C[N]4N=CC5=C4N=CN=C5N | 85.3 |  |
| CN1C(=O)C(=C\C2=C1N=C(NC3=CC=CC(=C3)C(O)=O)N=C2)/C4=C(Cl)C=CC=C4Cl | 148 |  |
| Cc1nccn1CC1CCc2c(c3ccccc3n2C)C1=O (centres undefined) | 103 |  |
| CCCCCCCCOc1ccccc1C(=O)Nc1ccc(C(=O)OCC[N+](C)(CC)CC)cc1 | 104 |  |
| O=C1c2c(O)cccc2[C@H]([C@@H]2O[C@H](CO)[C@@H](O)[C@H](O)[C@H]2O)c2cc(CO)cc(O)c21 | 119 |  |
| CCOC(=O)[C@H](CCc1ccccc1)N[C@@H](C)C(=O)N1CCC[C@H]1C(=O)O | 125 |  |
| C[C@]12CC[C@@H]3c4ccc(O)cc4CC[C@H]3[C@@H]1C[C@@H](O)[C@@H]2O | 87 |  |
| Cc1cc(OCCCc2c(C(=O)O)n(Cc3cccnc3)c3c(-c4c(COc5ccc(N6CCN([S+](C)(=O)[O-])CC6)cc5)nn(C)c4C)cccc23)cc(C)c1Cl | 105 |  |
| COc1cc2nc(N3CCCN(C)CC3)nc(NC3CCN(Cc4ccccc4)CC3)c2cc1OC | 13.6 |  |
| NC(=O)c1nnn(Cc2cc(Cl)c(C(=O)c3ccc(Cl)cc3)c(Cl)c2)c1N | 90.7 |  |
| C[C@H](NCc1ccc(OCc2cccc(F)c2)cc1)C(N)=O | 80.3 |  |
| CN(C)C(=O)[C@H](O)[C@H](Cc1ccccc1)NC(=O)c1cc2cc(Cl)ccc2[nH]1 | 114 |  |
| C[S+](=O)([O-])c1ccc(C(=O)Nc2ccc(Cl)c(-c3ccccn3)c2)c(Cl)c1 | 100 |  |
| CO[C@H]1O[C@@H]2O[C@@]3(C)CC[C@H]4[C@H](C)CC[C@@H]([C@H]1C)[C@@]24OO3 | 116 |  |
| Nc1ccc([S+](=O)([O-])Nc2ncccn2)cc1 | 131 |  |
| COC1=CC=C(C=C1)C/2=C/OC3=CC(=CC=C3C2=O)O | 95.7 |  |
| CC(=O)O[C@@]1(CC[C@H]2[C@@H]3\C=C(C)/C4=C/C(=O)CC[C@]4(C)[C@H]3CC[C@]12C)C(C)=O | 127 |  |
| COc1cc(NC(=O)c2ccc(-c3ccc(Cl)cc3)o2)cc(OC)c1 | 39.9 |  |
| O=C(/C=C/c1ccc(/C=C/C(=O)Nc2ccc(C3=NCCN3)cc2)cc1)Nc1ccc(C2=NCCN2)cc1 | 117 |  |
| COc1ccccc1[C@H](c1cccc2ccccc12)[C@@](C)(C#N)C(=O)N1CCC(c2cccc(C(F)(F)F)c2)CC1 | 86.3 |  |
| COc1cc(Cl)cn2c(-c3cccc(NC4CNC4)n3)cnc12 | 133 |  |
| Cc1c(O)cccc1C(=O)N[C@@H](CSc1ccccc1)[C@H](O)CN1C[C@H]2CCCC[C@H]2C[C@H]1C(=O)NC(C)(C)C | 126 |  |

| Compound | viability (top concentration 46.1 µM) | further results |
| --- | --- | --- |
| O=[N+]([O-])c1ccc(Nc2ccccc2-c2ccccc2)c2nonc12 | 106 |  |
| COc1ccc2cc1Oc1ccc(cc1)C[C@H]1c3cc(c(OC)cc3CCN1C)Oc1c(OC)c(OC)cc3c1[C@H](C2)N(C)CC3 | 86 |  |
| CN1CC(=O)\N=C1\NC(=O)NC2=CC(=CC=C2)Cl | 91.6 |  |
| NC(CO)(CO)CCc1ccc(Sc2cccc(OCc3ccccc3)c2)cc1Cl | 118 |  |
| C[C@]12CC[C@H]3[C@@H](CC(=C)\C4=C\C(=O)\C=C/[C@]34C)[C@@H]1CCC2=O | 112 |  |
| CCN(CC)Cc1ccc2cc(COC(=O)Nc3ccc(C(=O)NO)cc3)ccc2c1 | 78.6 |  |
| O=C(O)[C@H](Cc1c[nH]c2ccccc12)N1C(=O)c2ccccc2C1=O |  | viability (top concentration 92.2 µM): 116 |
| CC1(C)O[C@H]2CC(=O)OC[C@]23[C@H]2CC[C@@]4(C)[C@H](c5ccoc5)OC(=O)[C@H]5O[C@]54[C@]2(C)C(=O)C[C@@H]13 | 139 |  |
| CN1\C=N/C2=CC=C(NC3=CC(=CC=C3C)NC(=O)C4=CC(=CC=C4)C(C)(C)C#N)C=C2C1=O | 96.2 |  |
| NC\1=N\C(=O)N(\C=C1F)[C@H]2C[C@H](O)[C@@H](CO)O2 | 108 |  |
| CCN1CCN(c2ccc(Nc3cc(N(C)C(=O)Nc4c(Cl)c(OC)cc(OC)c4Cl)ncn3)cc2)CC1 | 117 |  |
| Cc1ccccc1C(OCCN(C)C)c1ccccc1 (centres undefined) | 127 |  |
| Cc1[nH]c(/C=C2\C(=O)Nc3ccc([S+](=O)([O-])N(C)c4cccc(Cl)c4)cc32)c(C)c1C(=O)N1CCN(C)CC1 | 138 |  |
| Cc1ccc([S+](=O)([O-])N[C@@H](Cc2ccccc2)C(=O)CCl)cc1 | 90.3 |  |
| CC(C)(C)[C@H](NC(=O)c1ccc(N)c(Cl)c1)C(=O)N1CCC[C@H]1C(=O)N[C@H](C#N)CC(=O)O |  | viability (top concentration 4.61 µM): 131 |
| O=C(O)CCn1c2c(c3ccccc31)C[C@H](N[S+](=O)([O-])c1ccc(F)cc1)CC2 | 116 |  |
| CC(Cc1ccc(O)c(O)c1)(NN)C(=O)O (centres undefined) | 96 |  |
| CN\1C(=O)/C(=C(\N=C1N2CCCC[S+]2([O-])=O)C(=O)NCC3=CC=C(F)C=C3)O | 121 |  |
| CC/1=C(/N2[C@H](SC1)[C@H](NC(=O)[C@H](N)\C3=C\C\C=C/C3)C2=O)C(O)=O | 121 |  |
| O=C1NCCc2[nH]c(-c3ccncc3)cc21 | 125 |  |
| O=C(CCCN1CCN(c2ccc(F)cc2)CC1)NC1c2ccccc2CSc2ccccc21 (centres undefined) | 93.5 |  |
| CN1CCC(CC1)=C2C3=C(C=CC=C3)\C=C/C4=C2C=CC=C4 | 111 |  |
| C[C@]\1(CCS\C(=N1)N)C2=CC(=C(F)C=C2F)C3=CN=CN=C3 | 80.2 |  |
| COC1=CC=C2[C@H]3CC[C@]4(C)[C@H](CC[C@H]4[C@@H]3CCC2=C1)NCCCCCCN5C(=O)\C=C/C5=O | 129 |  |
| CC(C)(C)C1=CC(=C(NC(=O)C/2=C/NC3=C(C=CC=C3)C2=O)C=C1O)C(C)(C)C | 114 |  |
| CC12CC3CC(C)(C1)CC(N)(C3)C2 | 117 |  |
| CNC[C@H](O)[C@@H](O)[C@H](O)[C@H](O)CO | 136 |  |

| Compound | viability (top concentration 46.1 µM) | further results |
| --- | --- | --- |
| CN1CCN(CCCN2c3ccccc3Sc3ccc(C(F)(F)F)cc32)CC1 | 79.1 |  |
| Cc1csc(NC(=O)c2sc3nc4c(c(C(F)(F)F)c3c2N)CCC4)n1 | 94.1 |  |
| COC[C@H](c1ccc(C(F)(F)F)cc1)N1CCN(C2(C)CCN(C(=O)c3c(C)ncnc3C)CC2)C[C@H]1C.O=C(O)/C=C\C(=O)O | 57.9 |  |
| COc1cc(N2CCC(N3CCN(C)CC3)CC2)ccc1Nc1ncc(Cl)c(Nc2ccccc2[S+](=O)([O-])C(C)C)n1 | 73.5 |  |
| Cl.Cl.Clc1ccc(Nc2nnc(Cc3ccncc3)c3ccccc23)cc1 | 101 |  |
| O=C1[O][Pt]2([NH]C3CCCCC3[NH]2)[O]C1=O (centres undefined) | 113 |  |
| O=C(c1ccc(Nc2nccc(-c3cc4ccccc4s3)n2)cc1)N1CCC(N2CCCC2)CC1 | 41 |  |
| CCC(C)CCCCC(=O)N[C@@H](CCN)C(=O)NC(C(=O)N[C@H](CCN)C(=O)N[C@@H]1CCNC(=O)C([C@@H](C)O)NC(=O)[C@@H](CCN)NC(=O)[C@@H](CCN)NC(=O)[C@@H](CC(C)C)NC(=O)[C@H](Cc2ccccc2)NC(=O)[C@H](CCN)NC1=O)[C@@H](C)O (some centres undefined) | 126 |  |
| COc1ccc(C(=O)CC(=O)c2ccc(C(C)(C)C)cc2)cc1 | 126 |  |
| C[S+](=O)([O-])Nc1ccc([N+](=O)[O-])cc1Oc1ccccc1 | 113 |  |
| NC(=O)c1ccc(N(C(N)=O)c2c(F)cccc2F)nc1-c1ccc(F)cc1F | 109 |  |
| Cc1ccnc(N[S+](=O)([O-])c2ccc(NC(=O)Nc3ccc([S+](=O)([O-])Nc4nccc(C)n4)cc3)cc2)n1 | 121 |  |
| FC(F)(F)c1ccc(Nc2nc3cc(Oc4ccnc(-c5ncc(C(F)(F)F)[nH]5)c4)ccc3[nH]2)cc1 | 97.7 |  |
| COc1ccc(OC)c(-c2nnc3ccc(-c4ccc(OC)c(O[C@@H]5CCOC5)c4)nn23)c1 | 4.61 |  |
| CN1CCN2c3ncccc3Cc3ccccc3C2C1 (centres undefined) | 101 |  |
| C[C@H]1C[C@H]2[C@@H]3CCC4=CC(=O)C=C[C@]4(C)[C@H]3C(=O)C[C@]2(C)[C@@]1(O)C(=O)CO | 104 |  |
| Nc1cc(c(cc1S(=O)(N)=O)S(N)(=O)=O)C(/Cl)=C(/Cl)Cl | 105 |  |
| O=C(N[C@H](CO)[C@H](O)c1ccc([N+](=O)[O-])cc1)C(Cl)Cl | 130 |  |
| COc1ccc2c(c1)[C@]13CCCCC1C(C2)N(C)CC3 (some centres undefined) | 102 |  |
| CC(C)n1c(/C=C/[C@H](O)C[C@H](O)CC(=O)O)c(-c2ccc(F)cc2)c2ccccc21 | 103 |  |
| CCOC\1=C(/C(=O)NC2=CC=C(OC3=C(Cl)C(=NC=C3)N)C(=C2)F)C(=O)N(\C=C1)C4=CC=C(F)C=C4 | 77.8 |  |
| ClC/1=C(NCCN2CCOCC2)/C(=O)C3=C(C=CC=N3)C1=O | 2.43 |  |
| CC[C@]1(O)C[C@@H]2CN(CCc3c([nH]c4ccccc34)[C@@](C(=O)OC)(c3cc4c(cc3OC)N(C)[C@H]3[C@@](O)(C(N)=O)[C@H](O)[C@]5(CC)C=CCN6CC[C@]43[C@@H]65)C2)C1 | 114 |  |
| CC[C@H](C)[N]1C=C(C)C2=C1C=C(C=C2C(=O)NC\C3=C(C)\C=C(\C)NC3=O)C4=CC=C(N=C4)N5CCNCC5 | 141 |  |
| C[N]1C=C(C2=C1C=CC=C2)\C3=C(\C(=O)NC3=O)C4=C5CC(CN)CC[N]5C6=C4C=CC=C6 (centres undefined) | 42.9 |  |

Source: the supplement of paper PMC6723410
